Test results reported in patent US11274079B2 (DALIAN INSTITUTE OF CHEMICAL PHYSICS, CHINESE ACADEMY OF …, priority 2018, dated 2022).

Legend:
M1 receptor = molecular target: T1, M1 receptor (Homo sapiens, UniProt P11229); assay: DMR assay, antagonism of acetylcholine in CHO-K1 cells stably transfecting the M1 receptor; assay type: cell-based; conditions: for IC50: CHO-K1-M1 cells, DMR, acetylcholine 1 μM, 1 h pretreatment, time point 5 min; for antagonistic activity against the M1 receptor, in words: structure-activity comparison with parent compound
T1 construct: expressed in transfected cells; host or cells: CHO-K1
T1 sequence (P11229 1-460): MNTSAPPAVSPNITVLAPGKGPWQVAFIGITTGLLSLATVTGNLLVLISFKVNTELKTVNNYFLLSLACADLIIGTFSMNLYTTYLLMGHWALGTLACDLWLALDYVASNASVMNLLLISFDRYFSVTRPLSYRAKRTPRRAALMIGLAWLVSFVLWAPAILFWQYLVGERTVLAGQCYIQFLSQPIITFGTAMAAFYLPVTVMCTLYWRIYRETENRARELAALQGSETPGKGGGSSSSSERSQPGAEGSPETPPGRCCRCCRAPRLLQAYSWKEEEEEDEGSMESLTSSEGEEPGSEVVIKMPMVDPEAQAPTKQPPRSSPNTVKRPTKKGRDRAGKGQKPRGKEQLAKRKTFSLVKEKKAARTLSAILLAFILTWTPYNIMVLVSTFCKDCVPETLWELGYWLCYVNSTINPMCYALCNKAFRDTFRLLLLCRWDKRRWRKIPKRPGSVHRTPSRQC
Protocol: (§1) The present invention relates to the antagonistic activity of the compound against the muscarinic receptor, which is primarily assessed by a cell-level dynamic mass redistribution (DMR) assay method. All tests are carried out on Epic platform, wherein the target model of the muscarinic receptor M1 is the CHO-K1 ceil model stably transfecting the M1 receptor, the target model of M3 is the HT-29 cell model endogenously highly expressing the M3 receptor, and the selected probe molecule is acetylcholine. Tire probe molecule acetylcholine is dissolved in water, while all other compounds are dissolved in DMSO.
(§2) The inoculated cell plate is placed in a cell incubator for culture for 12 h until the cell growth and fusion degree reaches about 95%, and the activity assay is carried out. The culture medium is sucked from the cultured ceils, the buffer salt specified by the test is added with a volume of 30 μL per orifice and is stabilized for 1 h. After the baseline is stable, a 2-min baseline is established, and different concentrations of compounds to be tested are added to test the cultured cells for 1 h. After the cells are pretreated with the compounds to be tested for 1 h, the 2-min baseline is re-established, and acetylcholine having a concentration of 1 μM is added to test the cultured cells for 1 h.

M3 receptor = molecular target: T2, M3 receptor (Homo sapiens, UniProt P20309); assay: DMR assay, antagonism of acetylcholine in HT-29 cells endogenously expressing the M3 receptor; assay type: cell-based; conditions: for IC50: HT-29 cells, DMR, acetylcholine 16 μM, 1 h pretreatment, time point 30 min; for antagonistic activity against the M3 receptor, in words: structure-activity comparison with parent compound
T2 construct: HT-29 cell model endogenously highly expressing the M3 receptor; endogenous in cells; host or cells: HT-29
T2 sequence (P20309 whole entry): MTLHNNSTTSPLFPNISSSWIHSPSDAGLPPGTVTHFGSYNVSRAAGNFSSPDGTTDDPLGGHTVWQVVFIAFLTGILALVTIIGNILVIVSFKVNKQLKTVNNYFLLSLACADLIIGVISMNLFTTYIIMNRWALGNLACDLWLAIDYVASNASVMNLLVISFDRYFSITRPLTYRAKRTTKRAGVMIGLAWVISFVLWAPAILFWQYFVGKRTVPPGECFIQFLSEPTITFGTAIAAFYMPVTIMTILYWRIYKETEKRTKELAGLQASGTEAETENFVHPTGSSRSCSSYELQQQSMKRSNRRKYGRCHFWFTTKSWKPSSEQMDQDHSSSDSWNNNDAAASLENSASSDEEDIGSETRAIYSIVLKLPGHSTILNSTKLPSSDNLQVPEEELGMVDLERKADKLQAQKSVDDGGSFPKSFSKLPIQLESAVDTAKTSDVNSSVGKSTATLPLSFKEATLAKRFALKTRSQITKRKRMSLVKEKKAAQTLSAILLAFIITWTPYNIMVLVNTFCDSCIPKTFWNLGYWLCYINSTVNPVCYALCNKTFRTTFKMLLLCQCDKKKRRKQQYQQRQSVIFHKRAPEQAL
Protocol: as §1
as §2, with “20” for “12”, “cells,” for “ceils,”, “h.” for “h. After the cells are pretreated with the compounds to be tested for 1 h, the 2-min baseline is re-established, and acetylcholine having a concentration of 1 μM is added to test the cultured cells for 1 h.”

[1] = test system: isolated tracheal smooth muscle; assay: Carbachol-induced contraction of isolated tracheal strip; conditions: Cavia porcellus, read-out: IC50, diastolic effect on isolated tracheal smooth muscle
Description: 1. Experimental Materials
2. Preparation of Tracheal Strip
The guinea pig is put to death by hammering it on the head, the chest cavity is quickly opened, and trachea is carefully isolated. […] The connective tissue and fat around the trachea are gently removed, and the trachea segment is quickly suspended and cut into tracheal strips with a blade (2-3 mm in width and 20 mm in length). […] The upper end of the tracheal strip is connected to a muscle tension transducer, and the load is adjusted to 1.5 g. The biological signal processing system is used to record the changes in muscular tension of tracheal smooth muscle. The perfusate is replaced once every 15 min, and the experiment is started after the tension is stabilized for 1 h. After each experiment, the smooth muscle is rinsed 3 to 5 times, and the next experiment is carried out after stabilization to the baseline.
3. Effects of Compounds Tested on Contraction of Isolated Tracheal Strip in Guinea Pig
After incubation of isolated tracheal for 1 h, 10 μm/L of carbachol is added to induce the minimum concentration (the concentration obtained from the dose-effect curve of carbachol) of the maximum tracheal smooth muscle contraction, and the changes in tension of the tracheal strip within 5 min are recorded. When the tension of the tracheal smooth muscle reaches the highest point, the compounds tested with a concentration of 1 nm/L are added, and the changes in tension of the tracheal strip within 5 min are recorded. […] Then, the concentration difference is decreased, that is, the concentration is increased by three or four times to repeat the above administration, which makes the tension decrease continuously to the base value (initial load). The changes in tension of the tracheal stop within 5 min are recorded. The dose-effect relationship between the compounds tested and the contractile activity of the isolated tracheal smooth muscle in the guinea pig is obtained. The curve of the changes in tension of the tracheal smooth muscle in each group is recorded and the inhibition rate is calculated. After repeated experiments, IC50 value of each compound tested is calculated by taking points respectively.
The dose-effect relationship between solvent (DMSO) control group and the contractile activity of the isolated tracheal smooth muscle in the guinea pig is recorded. Inhibition Rate=(Tension before Administration−Tension after Administration)/Tension before Administration

guinea pigs = assay: Acetylcholine chloride/histamine spray-induced asthma, incubation period; assay type: in vivo, guinea pig; conditions: for asthma incubation period: 0.2 mM in normal saline sprayed 10 min, challenge after 10 min, recorded as 240 s if no convulsion and fall; for efficacy in asthma model, in words: 0.2 mM spray
Protocol: On the first day, guinea pigs are placed in a 38×38×38 cm (about 55 L) of home-made container with an atomizing nozzle having a diameter of about 3 cm above the side wall. Ultrasonic atomizer (YUWELL, model 402AI) is used to spray normal saline containing acetylcholine chloride (20 g/L) and histamine (1 g/L) for 15 s. The incubation period of asthma of guinea pigs (also is called asthma incubation period, which is the time from the end of the spray to asthma attack, extreme breathing difficulty until convulsion and fall) is recorded after the cessation of spraying. Animals with an incubation period of less than 120 s are qualified sensitive animals.
2. Experimental Processes
On the second day, the qualified animals are selected for experiments, wherein one group (comprising 4 guinea pigs) is used as the control group, one group (comprising 4 guinea pigs) is experimented with positive medicine […] and one group (comprising 10 guinea pigs) is experimented with the drug to be tested. The animals are placed in a container, and sprayed with normal saline, tiotropium bromide and the compound to be tested. Both tiotropium bromide and the compound to be tested are soluble in normal saline at a concentration of 0.2 mM. After spraying for 10 min, the guinea pigs are taken out and put into another container of the same size. After 10 min, normal saline containing acetylcholine chloride (20 g/L) and histamine (1 g/L) is sprayed into the container for 15 s. The incubation periods of asthma of the guinea pigs are observed and recorded. If there is no convulsion and fall after 240 s, the incubation period is recorded as 240 s.

| IC50 (M1 receptor) [nM] | IC50 (M3 receptor) [nM] | antagonistic activity against the M1 receptor, in words (M1 receptor) | antagonistic activity against the M3 receptor, in words (M3 receptor) | SMILES | IC50 [1] [nM] | asthma incubation period (guinea pigs) [s] | efficacy in asthma model, in words (guinea pigs) |
| --- | --- | --- | --- | --- | --- | --- | --- |
| – | 2620 ± 425 | the activity is greatly decreased | the activity is greatly decreased | Cc1ccc(S(=O)(=O)Oc2ccc(C)cc2C(CC2CCCCN2C)c2ccccc2)cc1 (centres unmarked) [II-26, 2-[2-(2-methylp-toluenesulfonategroup-5-methyl-phenyl)-phenethyl]-N-methylpiperidine] | – | – | – |
| 63 ± 7.5 | 258 ± 30.4 | – | – | CCc1ccc(O)c(C(CC2CCCN2C)c2ccccc2)c1 (centres unmarked) [II-20] | – | – | – |
| 296 ± 62.9 | 239 ± 33.2 | – | – | CCN1CCCCC1CC(c1ccccc1)c1cc(C)ccc1O (centres unmarked) [II-18, 2-[2-(2-hydroxy-5-methyl-phenyl)-phenethyl]-N-ethylpiperidine] | – | – | – |
| 83.2 ± 22.8 | 109 ± 39.4 | – | – | CN1CCCCC1CC(c1ccccc1)c1cc(F)ccc1O (single isomer, unassigned) [II-10b, 2-[2-(2-hydroxy-5-fluorophenyl)-phenethyl]-N-methylpiperidine] | – | – | – |
| 73.2 ± 12.5 | 110 ± 13.9 | – | – | CCCc1ccc(O)c(C(CC2CCCCN2C)c2ccccc2)c1 (centres unmarked) [II-6] | – | – | – |
| 1900 ± 500 | 690 ± 160 | the activity is greatly decreased | the activity is greatly decreased | Cc1ccc(OC(=O)C(C)C)c(C(CC2CCCCN2C)c2ccccc2)c1 (centres unmarked) [II-23, 2-[2-(2-isobutyryl estergroup-5-methyl-phenyl)-phenethyl]-N-methylpiperidine] | – | – | – |
| 230 ± 10 | 210 ± 30 | – | – | Cc1ccc(O)c(C(CC2CCCCN2C)c2ccccc2F)c1 (centres unmarked) [II-7, 2-[2-(2-fluorophenyl)-2-(2-hydroxy-5-methyl-phenyl)ethyl]-N-methylpiperidine] | – | – | – |
| 190 ± 35.8 | 370 ± 159 | – | – | CN1CCCCC1CC(c1ccccc1)c1cc(O)ccc1O (centres unmarked) [II-11, 2-[2-(2,5-dihydroxy-phenyl)-phenethyl]-N-methylpiperidine] | – | – | – |
| 65.1 ± 11.7 | 112 ± 20 | – | – | Cc1ccc(C(CC2CCCCN2C)c2cc(C)ccc2O)cc1 (centres unmarked) [II-15, 2-[2-(4-tolyl)-2-(2-hydroxy-5-methyl-phenyl)-ethyl]-N-methylpiperidine] | – | – | – |

Continued, molecule first:

| SMILES | IC50 (M1 receptor) [nM] | IC50 (M3 receptor) [nM] | antagonistic activity against the M1 receptor, in words (M1 receptor) | antagonistic activity against the M3 receptor, in words (M3 receptor) | IC50 [1] [nM] | asthma incubation period (guinea pigs) [s] | efficacy in asthma model, in words (guinea pigs) |
| --- | --- | --- | --- | --- | --- | --- | --- |
| Cc1ccc(O)c(C(CC2CCCC[N+]2(C)C)c2ccccc2)c1 (single isomer, unassigned) [I-4a-Br, 2-[2-(2-hydroxy-5-methyl-phenyl)-phenethyl]-N,N-dimethylpiperidine Bromide] | 36.2 ± 6.1 | 35.5 ± 13.9 | – | – | 13.3 | – | – |
| C[N+]1(C)CCCCC1CC(c1ccccc1O)c1ccccc1O.[Br-] (centres unmarked) [I-3-1-Br, 2-[2,2-bis(2-hydroxy-phenyl)ethyl]-N,N-dimethylpiperidine Bromide] | 18.5 ± 3.6 | 6 ± 1.1 | – | – | – | 240 | good efficacy |
| Cc1ccc(O)c(C(CC2CCCC[N+]2(C)C)c2ccccc2)c1.[Br-] (centres unmarked) [I-4a-1-Br, 2-[2-(2-hydroxy-5-methyl-phenyl)-phenethyl]-N,N-dimethylpiperidine Bromide] | 28.8 ± 11.3 | 39.3 ± 10.9 | – | – | – | 240 | good efficacy |
| C[N+]1(C)CCCCC1CC(c1ccccc1)c1ccccc1O.[Br-] (centres unmarked) [I-2a-1-Br, 2-[2-(2-hydroxy-phenyl)-phenethyl]-N,N-dimethylpiperidine Bromide] | 8.8 ± 2.6 | 5.7 ± 1.1 | – | – | – | 228.9 ± 4.7 | good efficacy |
| Cc1ccc(O)c(C(CC2CCCC[N+]2(C)C)c2ccc(Cl)cc2)c1 (centres unmarked) [I-14, 2-[2-(4-chlorophenyl)-2-(2-hydroxy-5-methylphenyl)-ethyl]-N,N-dimethylpiperidine Bromide] | 79.2 ± 36.9 | 87.2 ± 36.5 | – | – | – | – | – |
| CN1CCCCC1CC(c1ccccc1)c1ccccc1 (centres unmarked) [II-1, 2-(2,2-Diphenylethyl)-N-Methylpiperidine] | 3130 ± 240 | > 10000 | – | – | – | – | – |
| CN1CCCCC1CC(c1ccccc1O)c1ccccc1O (single isomer, unassigned) [II-3-1, 2-[2,2-bis(2-hydroxy-phenyl)-ethyl]-N-methylpiperidine] | 30.4 ± 12.6 | 15.4 ± 2.9 | – | – | – | – | – |
| CN1CCCCC1CC(c1ccccc1O)c1ccccc1O (racemic) [II-3, 2-[2,2-bis(2-hydroxy-phenyl)-ethyl]-N-methylpiperidine] | 43.4 ± 10.6 | 13.1 ± 1.9 | – | – | – | – | – |
| CCc1ccc(O)c(C(CC2CCC[N+]2(C)C)c2ccccc2)c1 (centres unmarked) [I-20, 2-[2-(2-hydroxy-5-ethyl-phenyl)-phenethyl]-N,N-dimethylpyrrolidine Bromide] | 89 ± 7.3 | 53.2 ± 9.3 | – | – | – | – | – |
| Cc1ccc(O)c(C(CC2CCCC[N+]2(C)C)c2ccsc2)c1 (centres unmarked) [I-22, 2-[2-(3-thienyl)-2-(2-hydroxy-5-methyl-phenyl)-ethyl]-N,N-dimethylpiperidine Bromide] | 25.7 ± 0.8 | 10.7 ± 1.6 | – | – | – | – | – |
| C[N+]1(C)CCCCC1CC(c1ccccc1O)c1ccccc1O.[Br-] (centres unmarked) [I-3-2-Br, 2-[2,2-bis(2-hydroxy-phenyl)ethyl]-N,N-dimethylpiperidine Bromide] | 43.7 ± 15.3 | 11 ± 3.6 | – | – | – | 233.1 ± 21.8 | good efficacy |
| C[N+]1(C)CCCCC1CC(c1ccccc1)c1cc(F)ccc1O (single isomer, unassigned) [I-10b, 2-[2-(2-hydroxy-5-fluorophenyl)-phenylethyl]-N,N-dimethylpiperidine bromide] | 23.2 ± 12.1 | 12.1 ± 5.3 | – | – | – | – | – |
| C[N+]1(C)CCCCC1CC(c1ccccc1)c1cc(F)ccc1O.[Br-] (centres unmarked) [I-10a-1, 2-[2-(2-hydroxy-5-fluorophenyl)-phenylethyl]-N,N-dimethylpiperidine bromide] | – | 37 ± 4.3 | – | – | – | 240 | good efficacy |
| Cc1ccc(O)c(C(CC2CCCC[N+]2(C)CCCOc2ccccc2)c2ccccc2)c1.[Br-] (racemic) [I-4a-PrOPh, 2-[2-(2-hydroxy-5-methyl-phenyl)-phenethyl]-N-methyl, N-phenoxypropyl Piperidine Bromide] | 295 ± 136 | 279 ± 128 | – | a significant decrease in activity | – | – | – |
| CN1CCCCC1CC(c1ccccc1O)c1ccccc1O (single isomer, unassigned) [II-3-2, 2-[2,2-bis(2-hydroxy-phenyl)-ethyl]-N-methylpiperidine] | 53.4 ± 16.2 | 67.3 ± 6.6 | – | – | – | – | – |
| C[N+]1(C)CCCCC1CC(c1ccccc1)c1ccccc1O (centres unmarked) [I-2a-2-Br, 2-[2-(2-hydroxy-phenyl)-phenethyl]-N,N-dimethylpiperidine Bromide] | 33.8 ± 8.6 | 28.4 ± 6.1 | – | – | – | – | – |
| C[N+]1(C)CCCCC1CC(c1ccccc1)c1ccccc1O (centres unmarked) [I-2a-I, 2-[2-(2-hydroxy-phenyl)-phenethyl]N,N-dimethylpiperidine Iodide] | 16.5 ± 1.8 | 25.6 ± 1.9 | – | – | – | – | – |
| COc1ccc(O)c(C(CC2CCCC[N+]2(C)C)c2ccccc2)c1 (centres unmarked) [I-9, 2-[2-(2-hydroxy-5-methoxyphenyl)-phenethyl]-N,N-dimethylpiperidine Bromide] | 100 ± 10.2 | 160 ± 20.3 | – | – | – | – | – |
